From patent US8759535B2, “Substituted fused imidazole derivatives, pharmaceutical compositions, and methods of use thereof” (High Point Pharmaceuticals, LLC, priority 2010, dated 2014)
Structures can show the parent of a compound that is named as a salt.

Each molecule was assayed on HMOX1 (assay: HMOX1 Protein Assay (immunostaining of HO-1 in NHLF cells, GE InCell 1000)). Details: Homo sapiens, fold change above DMSO treated cells, 3 μM compound (asterisk), 16 h.
Format: cell-based
Experimental: Cell Culture. Normal Human Fibroblast (NHLF), were obtained from Lonza. Cultures of cells were maintained in Fibroblast Growth Medium (FGM-2) medium supplemented with 2% fetal bovine serum (FBS), Fibroblast Growth Factor (hFGF-B) 0.5 mL, Insulin 0.5 mL, gentamicin/amphotericin-B 0.5 mL at 37° C. in a humidified atmosphere of 5% CO2. Cells were grown to 80% confluence before treating.
HMOX1 Protein Assay. NHLF cells were grown to 80% confluency and harvested by washing once with HEPES and then trypsinized. Equal numbers (2×10^3 cells per well) of NHLF cells were plated in 384 well optilux tissue culture (BD) plates. Cells were incubated overnight in FGM-2 medium prior to exposure to compound. Cells were treated with either vehicle (DMSO) or compound (dissolved in vehicle) for 16 h. Cells were washed 2× with 1×PBS and fixed with 4% Paraformaldyhyde for 15 min. The fixed cells were then permeabalized with 0.1% Triton X-100 and blocked with 5% BSA in 1×PBS 0.05% Tween-20 for 15 min. HO-1 antibody (abcam) was used for immunostaining at 1:300 dilution in 1% BSA in 1×PBS for 1 hour. Cells were washed 2× with 1×PBS and secondary antibody goat anti-mouse Alexa 488 1:400 dilution (Invitrogen); Hoechst 1:2000 (Invitrogen) in 1% BSA in 1×PBS for 1 hour. Plate was washed 5× with 1×PBS and read at Hoechst Ex.360 […]; Alexa 488 Ex.480 Em. 535 using GE InCell 1000. Results analyzed using GE InCell Analyzer software. Heme oxygenase data represents the fold change above DMSO treated cells.
In general, the fold induction data are reported for 5 μM concentration (i.e., μ-moles of compound to total volume, where the solvent is about 99.2% media and 0.8% DMSO). In some instances, the reported data are for 3 μM concentration, which are indicated by an asterisk (*).
Molecule Cn1c(Nc2nc3ccc(C(F)(F)F)cc3s2)nc2cc(C(=O)NCCF)ccc21 [Example 210, 1-Methyl-2-(6-trifluoromethyl-benzothiazol-2-ylamino)-1H-benzoimidazole-5-carboxylic acid (2-fluoro-ethyl)-amide] has a fold induction at 3 µM of 29.9.
CC(O)C(=O)N1CC[C@@H](NC(=O)c2ccc3c(c2)nc(Nc2nc4ccc(Cl)cc4s2)n3C)C1 (stereo in doubt) [Example 295, 2-(6-Chloro-benzothiazol-2-ylamino)-1-methyl-1H-benzoimidazole-5-carboxylic acid [(R)-1-((R)-2-hydroxy-propionyl)-pyrrolidin-3-yl]-amide] gave a fold induction at 3 µM of 29.
For CN1CCN(CCNC(=O)c2ccc3c(c2)nc(Nc2nc4ccc(OC(F)(F)F)cc4s2)n3C)CC1 [Example 337, 1-Methyl-2-(6-trifluoromethoxy-benzothiazol-2-ylamino)-1H-benzoimidazole-5-carboxylic acid [2-(4-methyl-piperazin-1-yl)-ethyl]-amide], the fold induction at 3 µM was 12.7.
C[C@H](NC(=O)c1ccc2c(c1)nc(Nc1nc3ccc(Cl)cc3s1)n2C)C(=O)N1CCN(C)CC1 [Example 464, 2-(6-Chloro-benzothiazol-2-ylamino)-1-methyl-1H-benzoimidazole-5-carboxylic acid [(S)-1-methyl-2-(4-methyl-piperazin-1-yl)-2-oxo-ethyl]-amide] was tested, and the fold induction at 3 µM was 27.2.
CN1CCN(CCNC(=O)c2ccc3c(c2)nc(Nc2nc4ccc(Cl)cc4s2)n3C)CC1 [Example 338, 2-(6-Chloro-benzothiazol-2-ylamino)-1-methyl-1H-benzoimidazole-5-carboxylic acid [2-(4-methyl-piperazin-1-yl)-ethyl]-amide] showed a fold induction at 3 µM of 13.6.
C[C@@H](NC(=O)c1ccc2c(c1)nc(Nc1nc3ccc(Cl)cc3s1)n2C)C(=O)N1CCN(C)CC1 [Example 469, 2-(6-Chloro-benzothiazol-2-ylamino)-1-methyl-1H-benzoimidazole-5-carboxylic acid [(R)-1-methyl-2-(4-methyl-piperazin-1-yl)-2-oxo-ethyl]-amide] gave a fold induction at 3 µM of 26.1.

Same assay, conditions: Homo sapiens, fold change above DMSO treated cells, 5 μM compound, 16 h
Molecule Cn1c(Nc2nc3ccc(OC(F)(F)F)cc3s2)nc2cc(C(=O)NCCN3CCC(O)CC3)ccc21 [Example 192, 1-Methyl-2-(6-trifluoromethoxy-benzothiazol-2-ylamino)-1H-benzoimidazole-5-carboxylic acid [2-(4-hydroxy-piperidin-1-yl)-ethyl]-amide] has a fold induction at 5 µM of 28.8.
Cn1c(Nc2nc3ccc(OC(F)(F)F)cc3s2)nc2cc(C(=O)NCCN3CCCC3=O)ccc21 [Example 329, 1-Methyl-2-(6-trifluoromethoxy-benzothiazol-2-ylamino)-1H-benzoimidazole-5-carboxylic acid [2-(2-oxo-pyrrolidin-1-yl)-ethyl]-amide] was tested, and the fold induction at 5 µM was 52.2.
With Cn1c(Nc2nc3ccc(Cl)cc3s2)nc2ccc(C(=O)NCCOCCO)cc21 [Example 288, 2-(6-Chloro-benzothiazol-2-ylamino)-3-methyl-3H-benzoimidazole-5-carboxylic acid [2-(2-hydroxy-ethoxy)-ethyl]-amide] the fold induction at 5 µM was 47.
Molecule Cn1c(Nc2nc3ccc(Cl)cc3s2)nc2cc(C(=O)NCCCO)ccc21 [Example 214, 2-(6-Chloro-benzothiazol-2-ylamino)-1-methyl-1H-benzoimidazole-5-carboxylic acid (3-hydroxy-propyl)-amide] has a fold induction at 5 µM of 42.4.
Work on Cn1c(Nc2nc3ccc(OC(F)(F)F)cc3s2)nc2cc(C(=O)NCC(=O)N3CCOCC3)ccc21 [Example 138, 1-Methyl-2-(6-trifluoromethoxy-benzothiazol-2-ylamino)-1H-benzimidazole-5-carboxylic acid (2-morpholin-4-yl-2-oxo-ethyl)-amide] yielded a fold induction at 5 µM of 11.
Work on Cn1c(Nc2nc3ccc(OC(F)(F)F)cc3s2)nc2cc(C(=O)NCCOCCCO)ccc21 [Example 246, 1-Methyl-2-(6-trifluoromethoxy-benzothiazol-2-ylamino)-1H-benzoimidazole-5-carboxylic acid [2-(3-hydroxy-propoxy)-ethyl]-amide] yielded a fold induction at 5 µM of 76.5.
COCCn1c(Nc2nc3ccc(Cl)cc3s2)nc2cc(C(=O)NCC(=O)N3CCC(CO)CC3)ccc21 [Example 443, 2-(6-Chloro-benzothiazol-2-ylamino)-1-(2-methoxy-ethyl)-1H-benzoimidazole-5-carboxylic acid [2-(4-hydroxymethyl-piperidin-1-yl)-2-oxo-ethyl]-amide] was tested, and the fold induction at 5 µM was 39.8.
In the case of Cn1c(Nc2nc3ccc(Cl)cc3s2)nc2cc(C(=O)NCCCCO)ccc21 [Example 220, 2-(6-Chloro-benzothiazol-2-ylamino)-1-methyl-1H-benzoimidazole-5-carboxylic acid (4-hydroxy-butyl)-amide], the fold induction at 5 µM is reported as 61.9.
In the case of CN(C)C1CCN(C(=O)CNC(=O)c2ccc3c(c2)nc(Nc2nc4ccc(Cl)cc4s2)n3C)CC1 [Example 456, 2-(6-Chloro-benzothiazol-2-ylamino)-1-methyl-1H-benzoimidazole-5-carboxylic acid [2-(4-dimethylamino-piperidin-1-yl)-2-oxo-ethyl]-amide], the fold induction at 5 µM is reported as 67.3.
In the case of CC(O)CNC(=O)c1cnc2c(c1)nc(Nc1nc3ccc(OC(F)(F)F)cc3s1)n2C (centres unmarked) [Example 78, 3-Methyl-2-(6-trifluoromethoxy-benzothiazol-2-ylamino)-3H-imidazo[4,5-b]pyridine-6-carboxylic acid (2-hydroxy-propyl)-amide], the fold induction at 5 µM is reported as 28.6.
CCn1c(Nc2nc3ccc(OC(F)(F)F)cc3s2)nc2cc(C(=O)NC)ccc21 [Example 155, 1-Ethyl-2-(6-trifluoromethoxy-benzothiazol-2-ylamino)-1H-benzoimidazole-5-carboxylic acid methylamide] showed a fold induction at 5 µM of 24.3.
CCNC(=O)c1ccc2c(c1)nc(Nc1nc3ccc(OC(F)(F)F)cc3s1)n2CC [Example 156, 1-Ethyl-2-(6-trifluoromethoxy-benzothiazol-2-ylamino)-1H-benzoimidazole-5-carboxylic acid ethylamide] was tested, and the fold induction at 5 µM was 21.
Cn1c(Nc2nc3ccc(OC(F)(F)F)cc3s2)nc2cc(C(=O)NCC(=O)N3CCC(O)C3)ccc21 (centres unmarked) [Example 398, 1-Methyl-2-(6-trifluoromethoxy-benzothiazol-2-ylamino)-1H-benzoimidazole-5-carboxylic acid [2-(3-hydroxy-pyrrolidin-1-yl)-2-oxo-ethyl]-amide] was tested, and the fold induction at 5 µM was 31.7.
With CN1CCN(C(=O)CNC(=O)c2ccc3c(c2)nc(Nc2nc4ccc(Cl)cc4s2)n3C)CC1 [Example 426, 2-(6-Chloro-benzothiazol-2-ylamino)-1-methyl-1H-benzoimidazole-5-carboxylic acid [2-(4-methyl-piperazin-1-yl)-2-oxo-ethyl]-amide] the fold induction at 5 µM was 25.1.
Cn1c(Nc2nc3ccc(OC(F)(F)F)cc3s2)nc2cc(C(=O)NCC(=O)N3CCC(CF)CC3)ccc21 [Example 448, 1-Methyl-2-(6-trifluoromethoxy-benzothiazol-2-ylamino)-1H-benzoimidazole-5-carboxylic acid [2-(4-fluoromethyl-piperidin-1-yl)-2-oxo-ethyl]-amide] showed a fold induction at 5 µM of 36.7.
In the case of Cn1c(Nc2nc3ccc(OC(F)(F)F)cc3s2)nc2cc(C(=O)NCC(=O)N3CCC(C(N)=O)CC3)ccc21 [Example 451, 1-Methyl-2-(6-trifluoromethoxy-benzothiazol-2-ylamino)-1H-benzoimidazole-5-carboxylic acid [2-(4-carbamoyl-piperidin-1-yl)-2-oxo-ethyl]-amide], the fold induction at 5 µM is reported as 51.3.
Molecule Cn1c(Nc2nc3ccc(OC(F)(F)F)cc3s2)nc2cc(C(=O)NC3CCN(S(C)(=O)=O)CC3)ccc21 [Example 90, 1-Methyl-2-(6-trifluoromethoxy-benzothiazol-2-ylamino)-1H-benzoimidazole-5-carboxylic acid (1-methanesulfonyl-piperidin-4-yl)-amide] has a fold induction at 5 µM of 8.1.
Cn1c(Nc2nc3ccc(OC(F)(F)F)cc3s2)nc2cc(C(=O)NCCOCC3CCCO3)ccc21 (centres unmarked) [Example 53, 1-Methyl-2-(6-trifluoromethoxy-benzothiazol-2-ylamino)-1H-benzoimidazole-5-carboxylic acid [2-(tetrahydro-furan-2-ylmethoxy)-ethyl]-amide] was tested, and the fold induction at 5 µM was 20.1.
Molecule COCCn1c(Nc2nc3ccc(OC(F)(F)F)cc3s2)nc2cc(C(=O)NCCOCCO)ccc21 [Example 241, 1-(2-Methoxy-ethyl)-2-(6-trifluoromethoxy-benzothiazol-2-ylamino)-1H-benzoimidazole-5-carboxylic acid [2-(2-hydroxy-ethoxy)-ethyl]-amide] has a fold induction at 5 µM of 23.7.
In the case of Cn1c(Nc2nc3ccc(OC(F)(F)F)cc3s2)nc2cc(C(=O)NC3CCNC3)ccc21 (centres unmarked) [Example 289, 1-Methyl-2-(6-trifluoromethoxy-benzothiazol-2-ylamino)-1H-benzoimidazole-5-carboxylic acid pyrrolidin-3-ylamide hydrochloride], the fold induction at 5 µM is reported as 44.6.
